pEC50: −log10 of the molar value.
Molecular target: T1, human GPBAR1 receptor (Homo sapiens, UniProt Q8TDU6)
T1 construct: expressed in transfected cells
T1 sequence (Q8TDU6 1-330): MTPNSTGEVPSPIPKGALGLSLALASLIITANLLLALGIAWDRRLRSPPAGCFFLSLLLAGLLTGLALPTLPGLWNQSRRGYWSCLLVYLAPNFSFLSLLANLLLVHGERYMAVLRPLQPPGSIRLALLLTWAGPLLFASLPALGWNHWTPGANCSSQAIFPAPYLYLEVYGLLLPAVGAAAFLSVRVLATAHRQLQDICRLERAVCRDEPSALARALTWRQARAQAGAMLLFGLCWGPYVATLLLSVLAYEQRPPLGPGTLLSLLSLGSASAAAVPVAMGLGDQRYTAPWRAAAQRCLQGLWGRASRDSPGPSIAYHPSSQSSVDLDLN
Test: functional cAMP assay in CHO-dhfr(minus) cells expressing human GPBAR1 receptors
Type: cell-based
Settings: human EC50, functional cAMP assay, 30 min at 30° C.
Protocol: The final clone was verified by DNA sequence analysis. The plasmid was transfected into CHO cells deficient in dihydrofolate reductase activity (CHO-dhfr−) using Lipofectamine plus (Invitrogen). Clones were isolated in limited dilution conditions and identified by activities in the cAMP assay using lithocholic acid as agonist.
The growth medium was exchanged with Krebs Ringer Bicarbonate buffer with 1 mM IBMX and incubated at 30° C. for 30 min. Compounds were added to a final assay volume of 100 μl and incubated for 30 min at 30° C. […] The time-resolved energy transfer is measured by a TRF reader (Evotec Technologies GmbH, Hamburg Germany), equipped with a ND:YAG laser as excitation source.
EC50 values were determined using Activity Base analysis (ID Business Solution, Limited). […] Specificity for GPBAR1 was tested in non-transfected CHO cells in the same assay as above.

| Structure (SMILES) | pEC50 |
| --- | --- |
| Cc1cc(C(C=C(c2ccccc2)c2ccccc2)=NO)cc(C)n1 (mixture of isomers) [Example 66, 1-(2,6-Dimethyl-pyridin-4-yl)-3,3-diphenyl-propenone oxime] | 6.52 |
| COC(=O)c1ccc(-c2ccc(C(CC(=NO)c3ccnc(C)c3)c3ccccc3C)cc2)cc1 (mixture of isomers) [Example 74, 4′-[3-[Hydroxyimino]-3-(2-methyl-pyridin-4-yl)-1-o-tolyl-propyl]-biphenyl-4-carboxylic acid methyl ester] | 6.66 |
| Cn1cc(C(CC(c2ccc(C(=O)NCCO)c(F)c2)c2ccccc2Cl)=NO)ccc1=O (mixture of isomers) [Example 216, (E/Z)-4-(1-(2-Chlorophenyl)-3-(hydroxyimino)-3-(1-methyl-6-oxo-1,6-dihydropyridin-3-yl)propyl)-2-fluoro-N-(2-hydroxyethyl)benzamide] | 6.59 |
| Cc1ccccc1C(CC(=NO)c1ccncc1)c1cccc(Br)c1 (racemic) [Example 11, 3-(3-Bromo-phenyl)-1-pyridin-4-yl-3-o-tolyl-propan-1-one oxime] | 7.40 |
| CCC(CC(=NO)c1ccncc1)c1cccc(Br)c1 (racemic) [Example 13, 3-(3-Bromo-phenyl)-1-pyridin-4-yl-pentan-1-one oxime] | 6.76 |
| Cc1ccc(C(CC(=NO)c2ccncc2)c2ccc(N(C)C)cc2)cc1C (racemic) [Example 17, 3-(4-Dimethylamino-phenyl)-3-(3,4-dimethyl-phenyl)-1-pyridin-4-yl-propan-1-one oxime] | 6.42 |
| Cc1cc(C)cc(C(CC(=NO)c2ccncc2)c2ccc(N(C)C)cc2)c1 (racemic) [Example 18, 3-(4-Dimethylamino-phenyl)-3-(3,5-dimethyl-phenyl)-1-pyridin-4-yl-propan-1-one oxime] | 6.18 |
| Cc1ccccc1C(CC(=NO)c1ccncc1)c1cccc(-c2ccc(S(C)(=O)=O)cc2)c1 (racemic) [Example 29, 3-(4′-Methanesulfonyl-biphenyl-3-yl)-1-pyridin-4-yl-3-o-tolyl-propan-1-one oxime] | 6.40 |
| Cc1ccccc1C(CC(=NO)c1ccncc1)c1cccc(-c2cccc(S(C)(=O)=O)c2)c1 (racemic) [Example 30, 3-(3′-Methanesulfonyl-biphenyl-3-yl)-1-pyridin-4-yl-3-o-tolyl-propan-1-one oxime] | 6.74 |
| Cc1ccccc1C(CC(=NO)c1ccncc1)c1ccc(-c2cccc(S(C)(=O)=O)c2)cc1 (racemic) [Example 32, 3-(3′-Methanesulfonyl-biphenyl-4-yl)-1-pyridin-4-yl-3-o-tolyl-propan-1-one oxime] | 6.59 |
| Cc1ccccc1C(CC(=NO)c1ccncc1)c1ccc(-c2ccc(S(C)(=O)=O)cc2)cc1 (racemic) [Example 33, 3-(4′-Methanesulfonyl-biphenyl-4-yl)-1-pyridin-4-yl-3-o-tolyl-propan-1-one oxime] | 7.33 |
| Cc1ccccc1C(CC(=NO)c1ccncc1)c1ccc(-c2cncnc2)cc1 (racemic) [Example 34, 1-Pyridin-4-yl-3-(4-pyrimidin-5-yl-phenyl)-3-o-tolyl-propan-1-one oxime] | 7.85 |
| Cc1ccccc1C(CC(=NO)c1ccncc1)c1ccc(N2CCCCC2)cc1 (racemic) [Example 40, 3-(4-Piperidin-1-yl-phenyl)-1-pyridin-4-yl-3-o-tolyl-propan-1-one oxime] | 7.47 |
| Cc1ccccc1C(CC(=NO)c1ccncc1)c1ccc(N2CCOCC2)cc1 (racemic) [Example 41, 3-(4-Morpholin-4-yl-phenyl)-1-pyridin-4-yl-3-o-tolyl-propan-1-one oxime] | 7.44 |
| CCN(CC)c1ccc(C(CC(=NO)c2ccncc2)c2ccccc2C)cc1 (racemic) [Example 42, 3-(4-Diethylamino-phenyl)-1-pyridin-4-yl-3-o-tolyl-propan-1-one oxime] | 6.81 |
| Cc1cc(C(=NO)C(Cc2ccc(Br)cc2)c2ccccc2)cc(C)n1 (racemic) [Example 45, 3-(4-Bromo-phenyl)-1-(2,6-dimethyl-pyridin-4-yl)-2-phenyl-propan-1-one oxime] | 5.94 |
